{"source": "patent US4952607A", "about": "“Copper complex for treating cancer” (priority 1986, dated 1990)", "key": {"[1]": {"experiment": "O2^- scavenging / SOD activity, DMSO-KO2 nitro blue tetrazolium method", "type": "biochemical", "settings": "mean", "quoted_text": "The SOD activity of Orgotein and of tumor homogenates is assayed by the method of Beauchamp and Fridovich. Reaction mixtures contain 0.05M potassium phosphate buffer (pH 7.8) with 10^-3 M diethylenetriaminepentaacetic acid, 10^-4 M of xanthine, 5.6×10^-5 M of nitro blue tetrazolium, 10^-3 units of xanthine oxidase and 1 unit of catalase. Addition of 5×10^-3 M NaCN to this mixture inhibits CuZnSOD activity and allows the measurement of the activity of the cyanid insensitive MnSOD alone. The rate of blue formazan formation is measured by following the change of absorbance at 560 nm with a Cary Model 15 spectrophotometer. The sensitivity of the assay was such that 1 unit equaled 14±1 ng of pure erythrocyte SOD. The amount of protein in each sample is assayed using a conventional method. […] After bones and muscles are removed, the tumor tissue is rinsed and minced in 0.05 M potassium phosphate buffer (pH 7.8) and homogenized in a motor-driven Teflon pestle homogenizer. […] CuDIPS is dissolved in 10% Tween 80-saline. This alternate method is chosen due to the length of previous procedure and lipid insolubility of some of the reactants of the previous assay. Free O2^- is released when DMSO-KO2 is added to an aqueous solution. […] The formation of blue formazan is determined by recording the final absorbance of the assay mixture at 560 nm with a Cary Model 15 spectrophotometer. […]"}, "[2]": {"tested_on": "neuroblastoma cell clone NBP2", "type": "cell-based, mouse", "settings": "3 days; for % differentiation: control 8.0 ± 3.7; for % differentiation / Cell number ×10^5: mean ± S.D.; for Cell number ×10^5: control 17.1 ± 1.9", "description": "The neuroblastoma cell clone NBP2 provided by Dr. K. N. Prasad (University of Colorado), is maintained according to the procedure of Prasad and Hsie, Prasad, K. N. and Hsie, A. N., Nature New Biol. 233:141 (1971), hereby incorporated by reference. Cells are grown as a monolayer in 75 cm^2 Falcon plastic tissue culture flasks containing F-12 medium supplemented with 10% gamma globulin-free new born calf serum, penicillin (100 U/ml) and streptomycin (100 μg/ml). Cultures are maintained in a humidified atmosphere of 5% CO2 in a water jacketed incubator at 37° C. […] Only exponentially growing cells are used in the experiment. […] Medium, serum, antibiotics, and pancreatin are purchased from Grand Island Biological Company. […] Fifty-thousand cells were seeded in each […] plastic petri dish containing 5 ml of the growth medium. Cells are treated with CuDIPS 24 hours after seeding. CuDIPS is dissolved in ethanol to give a final concentration of 10, 25, or 50 μg/ml of copper compound in the medium. The concentration of ethanol in the medium is kept constant at 1% in all the treated and control dishes. Culture dishes containing 1% ethanol serve as controls. One day after the start of treatments and daily afterwards, fresh drug and medium are provided in each dish. To avoid possible degradation, CuDIPS is dissolved in ethanol immediately before use. The experiment is done in triplicate. Three days after the initial treatments the number of cells and percent differentiation of cells are scored in each dish. Four hundred cells per culture dish from at least three different regions are examined with a Leitz Divert phase contrast microscope. Cells with one or more processes at least twice as long as the soma diameter (processes usually longer than 50 microns) are scored as differentiated. To count the number of cells, cells are harvested with Pancreatin and the number of cells in each dish is determined by counting cells in a hemocytometer."}, "[3]": {"experiment": "Body weight of tumor bearing CBA mice (Ehrlich carcinoma)", "type": "in vivo"}, "[4]": {"settings": "rats, subcutaneous; reported; cited from earlier work"}, "[5]": {"experiment": "SOD activity, xanthine-xanthine oxidase nitro blue tetrazolium method (Beauchamp and Fridovich)", "type": "biochemical", "description": "Orgotein, a generic name for CuZnSOD derived from bovine liver, is obtained from Diagnostic Data Incorporated, Mountain View, California. It is 98% pure CuZnSOD isolated from bovine liver and had 3,300 units of pure erythrocyte SOD activity/mg protein when assayed by the method of Beauchamp, C. and Fridovich, I., Superoxide Dismutase: Improved Assays and an Assay Applicable to Acrylamide Gel., Anal. Biochem. 44:276-287 (1971), hereby incorporated by reference. Orgotein was dissolved in USP grade nonpyrogenic sterile saline.\nThe SOD activity of Orgotein and of tumor homogenates is assayed by the method of Beauchamp and Fridovich. Reaction mixtures contain 0.05M potassium phosphate buffer (pH 7.8) with 10^-3 M diethylenetriaminepentaacetic acid, 10^-4 M of xanthine, 5.6×10^-5 M of nitro blue tetrazolium, 10^-3 units of xanthine oxidase and 1 unit of catalase. […] The rate of blue formazan formation is measured by following the change of absorbance at 560 nm with a Cary Model 15 spectrophotometer. […] O2^- scavenging ability of CuDIPS is determined by a similar assay method; the only difference is that dimethyl sulfoxide (DMSO) solvated potassium superoxide (KO2) is used to generate O2^- instead of xanthine and xanthine oxidase. […] The formation of blue formazan is determined by recording the final absorbance of the assay mixture at 560 nm with a Cary Model 15 spectrophotometer. […]"}, "[6]": {"tested_on": "Sarcoma 180 cells", "experiment": "Tumor growth and survival of CF1 mice implanted with Sarcoma 180 cells", "type": "in vivo", "description": "Autopsies are performed on all dead animals."}, "[7]": {"tested_on": "Sarcoma 180 cells", "experiment": "Viability of Sarcoma 180 cells incubated in Orgotein", "type": "cell-based, mice", "settings": "2.5×10^7 cells/ml; 0.8 mg/ml, one hour", "description": "Table II and Chart II show the survival times of these tumor bearing mice; there is a 23% increase in mean survival time in the Orgotein treated group (p less than 0.1). Viability of the Sarcoma 180 cells (2.5×10^7 cells/ml) is unchanged when they are incubated in 0.8 mg/ml Orgotein for one hour, showing that the effect of Orgotein is probably not due to cytotoxicity."}, "[8]": {"experiment": "Acute toxicity LD50, subcutaneous, rats"}, "[9]": {"experiment": "Acute toxicity LD50, subcutaneous, mice"}, "[10]": {"settings": "50 μg/ml, listed as Cu(II)(3,5-diisopropylsalicylate)2"}}, "note": "Values joined by “and” are separate entries in the source; they are usually repeats but may differ in a detail not shown here. Equal entries are not always repeated. “Also recorded” adds a separate entry of the source. Where two headings read alike, the source gives them in different places.", "data": [{"compound": "CC(C)c1cc(C(=O)[O-])c(O)c(C(C)C)c1.CC(C)c1cc(C(=O)[O-])c(O)c(C(C)C)c1.[Cu+2]", "note": "[CuDIPS, Cu(II) (3,5-diisopropylsalicylate)2]", "values": [{"measurement": "SOD activity", "setting": "[1]", "result": "17,400±1,800 units of SOD activity/mg of the compound"}, {"measurement": "% differentiation", "setting": "[2]; 10 μg/ml, listed as Cu(II)(3,5-diisopropylsalicylate)2", "result": "7.4 ± 2.6", "unit": "%"}, {"measurement": "Cell number ×10^5", "setting": "[2]; 10 μg/ml, p less than 0.05", "result": "a small reduction in the number of cells per culture dish"}, {"measurement": "Cell number ×10^5", "setting": "[2]; 10 μg/ml, p less than 0.05, listed as Cu(II)(3,5-diisopropylsalicylate)2", "result": "12.7 ± 1.4 ×10^5"}, {"measurement": "cell population relative to control", "setting": "[2]; 25 μg/ml", "result": "less than half of the cell population"}, {"measurement": "% differentiation", "setting": "[2]; 25 μg/ml", "result": "22.4±2.6", "unit": "%"}, {"measurement": "% differentiation", "setting": "[2]; 25 μg/ml, listed as Cu(II)(3,5-diisopropylsalicylate)2", "result": "22.4 ± 2.6", "unit": "%"}, {"measurement": "Cell number ×10^5", "setting": "[2]; 25 μg/ml, per culture dish", "result": "7.1±1.2 ×10^5"}, {"measurement": "Cell number ×10^5", "setting": "[2]; 25 μg/ml, per culture dish, listed as Cu(II)(3,5-diisopropylsalicylate)2", "result": "7.1 ± 1.2 ×10^5"}, {"measurement": "morphology of treated cells", "setting": "[2]; 50 μg/ml", "result": "morphologically resembles mature neural cells"}, {"measurement": "% differentiation", "setting": "[2]; 50 μg/ml", "result": "74.2±4.9", "unit": "%"}, {"measurement": "% differentiation", "setting": "[2]; [10]", "result": "74.2 ± 4.9", "unit": "%"}, {"measurement": "Cell number ×10^5", "setting": "[2]; 50 μg/ml", "result": "a remarkable reduction in cell population"}, {"measurement": "Cell number ×10^5", "setting": "[2]; [10]", "result": "1.4 ± 0.6 ×10^5"}, {"measurement": "body weight change", "setting": "[3]; mouse, in vivo", "result": "no weight loss was observed"}, {"measurement": "LD50", "setting": "[4]", "result": "240 mg/kg and 240 ± 33 mg/kg"}]}, {"compound": "O=S(=O)([O-])[O-].[Cu+2]", "note": "[CuSO4, copper sulfate]", "values": [{"measurement": "body weight change", "setting": "[3]; CuSO4 0.5 mg in 0.1 ml, 5 days", "result": "continuous loss of weight"}]}, {"compound": "Orgotein: generic name for CuZnSOD derived from bovine liver", "values": [{"measurement": "SOD activity of Orgotein as obtained", "setting": "[5]; method of Beauchamp and Fridovich", "result": "3,300 units of pure erythrocyte SOD activity/mg protein"}, {"measurement": "SOD activity", "setting": "[5]; xanthine-xanthine oxidase method", "result": "49,500±300 units of SOD activity/mg protein"}, {"measurement": "tumor growth curve vs control after 27 days", "setting": "[6]; 1.2 mg at 1 hour after implantation, after 27 days", "result": "the growth curves are the same"}, {"measurement": "reduction in tumor size", "setting": "[6]; 1.2 mg at 1 hour after implantation, p less than 0.05 between 11 and 27 days", "result": "reduction of tumor size; also recorded: a reduction in tumor size is observed"}, {"measurement": "Maximum Survival Time", "setting": "[6]; 1.2 mg i.m. at 1 hour", "result": 90, "unit": "days"}, {"measurement": "Median Survival Time", "setting": "[6]; 1.2 mg i.m. at 1 hour", "result": 53, "unit": "days"}, {"measurement": "Mean Survival Time", "setting": "[6]; 1.2 mg i.m. at 1 hour, ± standard error, p less than 0.1", "result": "53 ± 5", "unit": "days"}, {"measurement": "increase in mean survival time", "setting": "[6]; Orgotein treated group, p less than 0.1", "result": 23, "unit": "%"}, {"measurement": "effect on tumor growth and survival", "setting": "[6]; local injection, Sarcoma 180", "result": "a slight effect on the tumor growth and survival"}, {"measurement": "tumor growth / survival, delayed treatment", "setting": "[6]; same dose given 5 or 10 days after transplantation", "result": "no significant decrease in tumor growth or increase in survival is observed"}, {"measurement": "Viability of the Sarcoma 180 cells", "setting": "[7]", "result": "unchanged"}]}, {"compound": "CC(C)c1cc(C(=O)O)c(O)c(C(C)C)c1", "note": "[DIPS, diisopropylsalicylic acid]", "values": [{"measurement": "body weight change", "setting": "[3]; DIPS i.m., single doses", "result": "loss of body weight"}]}, {"compound": "CC(=O)Oc1ccccc1C(=O)[O-].CC(=O)Oc1ccccc1C(=O)[O-].CC(=O)Oc1ccccc1C(=O)[O-].CC(=O)Oc1ccccc1C(=O)[O-].[Cu+2].[Cu+2]", "note": "[Cu(II)2 (aspirinate)4]", "values": [{"measurement": "LD50", "setting": "[8]", "result": 760, "unit": "mg/kg"}, {"measurement": "LD50", "setting": "[9]", "result": "greater than 320 mg/kg"}]}]}
